Test results taken from patent US8846736B2, “Pyrrole inhibitors of S-nitrosoglutathione reductase as therapeutic agents” (N30 Pharmaceuticals, Inc., priority 2008, dated 2014).

Target: T1, GSNOR (GSNO Reductase) (Homo sapiens, UniProt P11766)
T1 construct: made in house; host or cells: E. coli (arabinose-induced)
Assay: GSNOR assay (in vitro inhibition of GSNOR activity, change in 340 nm absorbance)
Format: biochemical
Settings: GSNOR inhibitor activity by the assay of Example 2; 0.240 mM GSNO, 0.300 mM NADH, pH 7.4, 25° C.; values given as 'about' bounds
Procedure: Various compounds were tested in vitro for their ability to inhibit GSNOR activity. Representative compounds and their corresponding GSNOR activity are described in a paragraph before Table 1 above. GSNOR expression and purification is described in Biochemistry 2000, 39, 10720-10729.
Pre-cultures were grown from stabs of a GSNOR glycerol stock in 2XYT media containing 100 ug/ml ampicillin after an overnight incubation at 37° C. Cells were then added to fresh 2XYT (4 L) containing ampicillin and grown to an OD (A600) of 0.6-0.9 at 37° C. before induction. GSNOR expression was induced with 0.1% arabinose in an overnight incubation at 20° C.
E. coli cell paste was lysed by nitrogen cavitation and the clarified lysate purified by Ni affinity chromatography on an AKTA FPLC (Amersham Pharmacia). The column was eluted in 20 mM Tris pH 8.0/250 mM NaCl with a 0-500 mM imidazole gradient. […] GSNOR was recovered in the flowthrough fraction and for crystallography is further purified by Q-Sepharose and Heparin flowthrough chromatography in 20 mM Tris pH 8.0, 1 mM DTT, 10 uM ZnSO4.
GSNO and Enzyme/NADH Solutions are made up fresh each day. The Solutions are filtered and allowed to warm to room temperature. GSNO Solution: 100 mM NaPO4 (pH 7.4), 0.480 mM GSNO. 396 μL of GSNO Solution is added to a cuvette followed by 8 μL of test compound in DMSO (or DMSO only for full reaction control) and mixed with the pipette tip. Compounds to be tested are made up at a stock concentration of 10 mM in 100% DMSO. 2 fold serial dilutions are done in 100% DMSO. 8 μL of each dilution are added to an assay so that the final concentration of DMSO in the assay is 1%. The concentrations of compounds tested range from 100 to 0.003 μM. Enzyme/NADH Solution: 100 mM NaPO4 (pH 7.4), 0.600 mM NADH, 1.0 μg/mL GSNO Reductase. 396 μL of the Enzyme/NADH Solution is added to the cuvette to start the reaction. The cuvette is placed in the Cary 3E UV/Visible Spectrophotometer and the change in 340 nm absorbance/min at 25° C. is recorded for 3 minutes. The assays are done in triplicate for each compound concentration. IC50's for each compound are calculated using the standard curve analysis in the Enzyme Kinetics Module of SigmaPlot.
Final assay conditions: 100 mM NaPO4, pH 7.4, 0.240 mM GSNO, 0.300 mM NADH, 0.5 μg/mL GSNO Reductase and 1% DMSO. Final volume: 800 μL/cuvette.

T1 sequence (P11766 whole entry): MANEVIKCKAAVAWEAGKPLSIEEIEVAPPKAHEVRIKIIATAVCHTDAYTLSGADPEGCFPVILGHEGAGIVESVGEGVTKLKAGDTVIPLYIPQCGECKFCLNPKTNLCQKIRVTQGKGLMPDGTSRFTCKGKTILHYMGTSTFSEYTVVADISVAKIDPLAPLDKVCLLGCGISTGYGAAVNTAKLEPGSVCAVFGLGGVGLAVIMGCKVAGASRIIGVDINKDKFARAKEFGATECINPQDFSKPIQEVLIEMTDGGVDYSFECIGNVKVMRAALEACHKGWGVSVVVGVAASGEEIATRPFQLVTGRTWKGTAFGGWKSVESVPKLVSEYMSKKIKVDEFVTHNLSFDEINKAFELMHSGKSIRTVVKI

Row | Structure (SMILES) | IC50 [nM]
1 | NC(=O)c1ccc(-n2c(CCc3nnn[nH]3)ccc2-c2ccccc2)cc1 [Compound 1, 4-(2-(2-(1H-tetrazol-5-yl)ethyl)-5-phenyl-1H-pyrrol-1-yl)benzamide] | < 1000
2 | COc1ccc(-c2ccc(Cc3nnn[nH]3)n2-c2ccc(C(N)=O)cc2C)cc1 [Compound 10, 4-(2-((1H-tetrazol-5-yl)methyl)-5-(4-methoxyphenyl)-1H-pyrrol-1-yl)-3-methylbenzamide] | < 5000
3 | COc1ccc(-c2ccc(CCc3nnn[nH]3)n2-c2ccc(O)cc2)cc1 [Compound 13, 4-(2-(2-(1H-tetrazol-5-yl)ethyl)-5-(4-methoxyphenyl)-1H-pyrrol-1-yl)phenol] | < 5000
4 | Cc1nccn1-c1ccc(-c2ccc(Cc3nnn[nH]3)n2-c2ccc(O)cc2)cc1 [Compound 18, 4-(2-((1H-tetrazol-5-yl)methyl)-5-(4-(2-methyl-1H-imidazol-1-yl)phenyl)-1H-pyrrol-1-yl)phenol] | < 1000
5 | Oc1ccc(-n2c(Cc3nnn[nH]3)ccc2-c2ccc(-n3ccnc3)cc2)cc1 [Compound 12, 4-(2-(4-(1H-imidazol-1-yl)phenyl)-5-((1H-tetrazol-5-yl)methyl)-1H-pyrrol-1-yl)phenol] | < 1000
6 | Cc1cc(C(N)=O)ccc1-n1c(Cc2nnn[nH]2)ccc1-c1ccc(-n2ccnc2C)s1 [Compound 19, 4-(2-((1H-tetrazol-5-yl)methyl)-5-(5-(2-methyl-1H-imidazol-1-yl)thiophen-2-yl)-1H-pyrrol-1-yl)-3-methylbenzamide] | < 1000
7 | Cc1cc(C(N)=O)ccc1-n1c(Cc2nnn[nH]2)ccc1-c1ccc(Br)cc1 [Compound 9, 4-(2-((1H-tetrazol-5-yl)methyl)-5-(4-bromophenyl)-1H-pyrrol-1-yl)-3-methylbenzamide] | < 1000
8 | Cc1cc(C(N)=O)ccc1-n1c(CCc2nnn[nH]2)ccc1-c1ccc(Br)cc1 [Compound 11, 4-(2-(2-(1H-tetrazol-5-yl)ethyl)-5-(4-bromophenyl)-1H-pyrrol-1-yl)-3-methylbenzamide] | < 1000
9 | COc1cc(Br)ccc1-c1ccc(CCc2nnn[nH]2)n1-c1ccc(O)cc1 [Compound 15, 4-(2-(2-(1H-tetrazol-5-yl)ethyl)-5-(4-bromo-2-methoxyphenyl)-1H-pyrrol-1-yl)phenol] | < 1000
10 | Oc1ccc(-n2c(CCc3nnn[nH]3)ccc2-c2ccc(Br)cc2)cc1 [Compound 5, 4-(2-(2-(1H-tetrazol-5-yl)ethyl)-5-(4-bromophenyl)-1H-pyrrol-1-yl)phenol] | < 1000
11 | COc1ccc(-c2ccc(CCc3nnn[nH]3)n2-c2ccc(C(N)=O)cc2C)cc1 [Compound 4, 4-(2-(2-(1H-tetrazol-5-yl)ethyl)-5-(4-methoxyphenyl)-1H-pyrrol-1-yl)-3-methylbenzamide] | < 5000
12 | Cc1cc(NS(C)(=O)=O)ccc1-n1c(Cc2nn[nH]n2)ccc1-c1ccc(-n2ccnc2C)s1 [Compound 22, N-(4-(2-((1H-tetrazol-5-yl)methyl)-5-(5-(2-methyl-1H-imidazol-1-yl)-thiophen-2-yl)-1H-pyrrol-1-yl)-3-methylphenyl)-methanesulfonamide] | < 1000
13 | Oc1ccc(-n2c(Cc3nnn[nH]3)ccc2-c2ccc(Br)cc2)cc1 [Compound 6, 4-(2-((1H-tetrazol-5-yl)methyl)-5-(4-bromophenyl)-1H-pyrrol-1-yl)phenol] | < 5000
14 | Cc1cc(C(N)=O)ccc1-n1c(Cc2nnn[nH]2)ccc1-c1ccc(-n2ccnc2C)cc1 [Compound 21, 4-(2-((1H-tetrazol-5-yl)methyl)-5-(4-(2-methyl-1H-imidazol-1-yl)phenyl)-1H-pyrrol-1-yl)-3-methylbenzamide] | < 1000
15 | COc1cc(Cl)ccc1-c1ccc(CCc2nnn[nH]2)n1-c1ccc(C(N)=O)cc1C [Compound 16, 4-(2-(2-(1H-tetrazol-5-yl)ethyl)-5-(4-chloro-2-methoxy-phenyl)-1H-pyrrol-1-yl)-3-methylbenzamide] | < 1000
16 | COc1ccc(-c2ccn(CCc3nnn[nH]3)c2-c2ccc(C(N)=O)cc2C)cc1 [Compound 23, 4-(1-(2-(1H-tetrazol-5-yl)ethyl)-3-(4-methoxy-phenyl)-1H-pyrrol-2-yl)-3-methylbenzamide] | < 5000
17 | COc1cc(Br)ccc1-c1ccc(CCc2nnn[nH]2)n1-c1ccc(C(N)=O)cc1C [Compound 17, 4-(2-(2-(1H-tetrazol-5-yl)ethyl)-5-(4-bromo-2-methoxy-phenyl)-1H-pyrrol-1-yl)-3-methylbenzamide] | < 1000
18 | COc1cc(Cl)ccc1-c1ccc(CCc2nnn[nH]2)n1-c1ccc(O)cc1 [Compound 14, 4-(2-(2-(1H-tetrazol-5-yl)ethyl)-5-(4-chloro-2-methoxyphenyl)-1H-pyrrol-1-yl)phenol] | < 1000
19 | Cc1nccn1-c1ccc(-c2ccc(Cc3nnn[nH]3)n2-c2ccc(O)cc2)s1 [Compound 20, 4-(2-((1H-tetrazol-5-yl)methyl)-5-(5-(2-methyl-1H-imidazol-1-yl)thiophen-2-yl)-1H-pyrrol-1-yl)phenol] | < 1000
20 | Oc1ccc(-n2c(CCc3nnn[nH]3)ccc2-c2ccc(-n3ccnc3)cc2)cc1 [Compound 8, 4-(2-(4-(1H-imidazol-1-yl)phenyl)-5-(2-(1H-tetrazol-5-yl)ethyl)-1H-pyrrol-1-yl)phenol] | < 1000
